Patent US12201707B2, “Nano-emulsion composition for tooth whitening and method for producing the same” (AMOREPACIFIC CORPORATION, priority 2021, dated 2025)

Test: Tooth whitening test
Procedure: Discoloration was induced by immersing 12 hydroxyapatite (HAP) discs in black tea. Subsequently, the four discolored discs were immersed in vials containing each of the nanoemulsion composition of Example 31, a nanoemulsion composition in which oxygen was not captured as a control (control group 1), distilled water as a control (control group 2), and 3% hydrogen peroxide as a control (control group 3), respectively. The lightness values (L values) of the discs were measured on days 0, 2, 4 and 6 using a spectrophotometer. Before each measurement, the discs were completely dried at 55° C. for 1 hour using an oven.

## OO [Control 3, hydrogen peroxide]
Day 0
  lightness value (L value) of disc: 72.9
Day 2
  lightness value (L value) of disc: 84.3
Day 4
  lightness value (L value) of disc: 92.96
Day 6
  lightness value (L value) of disc: 97.48
